Test system: human vascular smooth muscle cells
Test: Determination of DNA synthesis inhibition activity (3H-thymidine intake) to human vascular smooth muscle cells
Format: cell-based
Details: for Growth inhibition rate (per cent to control): 1 × 10^−5 M compound added, 3H-thymidine intake after culturing 24 hours, compared with vehicle-treated group as control; for inhibiting activity on the growth of human vascular smooth muscle cells: summary in words of Table 1 (1 × 10^−5 M)
Procedure: Experiment [Determination of DNA synthesis inhibition activity of PGE1 derivatives to human vascular smooth muscle cells]
On a 24-well plate (manufactured by Corning Co.), 1×10^4 cells/well of quintic culture cells of vascular cells derived from normal human aorta (produced by Kurabo Co.) were inoculated and cultured for 2 days. The medium was exchanged from the growth medium (SG2: produced by Kurabo Co.) to the basal medium (SB2: produced by Kurabo Co.), and cultured for 24 hours, to which was added the growth medium (SG2) containing an ethanol solution of the test compound. ^3H-Thymidine (produced by Daiichi Chemicals Co.) was added in an amount of 0.01 mci/well and, after culturing for 24 hours, the cultured supernatant was removed by suction, followed by washing with a phosphate buffer solution (PBS). 5% Trichloroacetic acid (TCA) was added and, after allowing to stand at 4° C. for 20 minutes, the mixture was washed once with TCA. The mixture was washed with PBS, and dissolved in 0.5 M aqueous potassium hydroxide solution. Intake of ^3H-thymidine was determined using 20 μl of the aqueous potassium hydroxide solution dissolving the cells which incorporated ^3H-thymidine in the nucleus by means of a liquid scintillation counter (manufactured by Hewlett-Packard Co.).
Note: The test compounds were each used as an ethanol solution and compared with a vehicle-treated group as control.

Row | Structure (SMILES) | Growth inhibition rate (per cent to control) | inhibiting activity on the growth of human vascular smooth muscle cells
1 | CCCC1(C(O)C/C=C/C2C(SCCO)CC(=O)C2CCCCCCC(=O)OC)CCC1 [Compound 23, (11S,16S)-11,15-dideoxy-11-(2-hydroxyethylthio)-16-hydroxy-17,17-trimethylene-PGE1 methyl ester] | 91.5 per cent to control | high inhibiting activity
2 | CCCC1(C(O)C/C=C/C2C(SCCO)CC(=O)C2CCCC/C=C/C(=O)OC)CCC1 [Compound 29, (2E,11R,16R)-11,15-Dideoxy-11-(2-hydroxyethylthio)-16-hydroxy-17,17-trimethylene-2,3-didehydro-PGE1 methyl ester] | 100 per cent to control | high inhibiting activity
3 | CCCC1(C(O)C/C=C/C2C(SCCO)CC(=O)C2CCCC/C=C/C(=O)OC)CCC1 [Compound 32, (2E,11R,16S)-11,15-Dideoxy-11-(2-hydroxyethylthio)-16-hydroxy-17,17-trimethylene-2,3-didehydro-PGE1 methyl ester] | 100 per cent to control | high inhibiting activity
4 | CCCC1(C(O)C/C=C/C2C(SCCCO)CC(=O)C2CCCCCCC(=O)OC)CCC1 [Compound 41, (11R,16S)-11,15-Dideoxy-11-(3-hydroxypropylthio)-16-hydroxy-17,17-trimethylene-PGE1 methyl ester] | 93.2 per cent to control | high inhibiting activity
5 | CCCC1(C(O)C/C=C/C2C(SCC(N)C(=O)OC)CC(=O)C2CCCCCCC(=O)OC)CCC1 [Compound 54, (11R,16S)-11,15-Dideoxy-11-[(2R)-2-methoxycarbonyl-2-aminoethylthio]-16-hydroxy-17,17-trimethylene-PGE1 methyl ester] | 100 per cent to control | high inhibiting activity
6 | CCCC1(C(O)C/C=C/C2C(SCC(N)C(=O)OC)CC(=O)C2CCCCCCC(=O)OC)CCC1 [Compound 55, (11S,16S)-11,15-dideoxy-11-[(2R)-2-methoxycarbonyl-2-aminoethylthio]-16-hydroxy-17,17-trimethylene-PGE1 methyl ester] | 94.3 per cent to control | high inhibiting activity
